LC retention time data for 76 molecules are collected here from the RepoRT retention time repository (doi:10.1038/s41586-021-03707-9).

Series [1] is described as follows: RP, Waters ACQUITY UPLC HSS C18, 100 × 2.1 mm, 1.7 µm, 40 °C, 0.35 mL/min, estimated dead time 0.63 min; A: water + 0.1% formic acid; B: methanol + 0.1% formic acid; gradient (min/%B) 0/0.5 4/70 4.5/98 5.4/98. The conditions noted are these: stereoisomer not certain.
A short description of series [2]: Waters ACQUITY UPLC BEH C18, 100 × 2.1 mm, 1.7 µm, 40 °C, 0.28 mL/min, estimated dead time 0.63 min; A: water + 6.5 mM ammonium hydroxide; B: methanol + 6.5 mM ammonium hydroxide; gradient (min/%B) 0/0.5 4/70 4.5/98 5.4/98. The conditions noted are these: stereoisomer not certain.

Molecules are shown by their SMILES.

For `O=C(O)C(O)Cc1c[nH]c2ccccc12` (configuration not stated), the LC retention time was 3.93 min in series [1] and 2.59 min in series [2].
For the molecule `O=c1ccn(C2CC(O)C(COP(=O)(O)O)O2)c(=O)[nH]1` (configuration not stated), the results for the LC retention time in series [1] and in series [2] were 1.35 min and 0.813 min, respectively.
In the case of `COc1cc(C(=O)O)ccc1O`, the values for the LC retention time in series [1] and in series [2] were 3.33 min and 0.869 min, respectively.
As to `CC1C(=O)Nc2ccccc21` (configuration not stated), the LC retention time in series [1] was 4.43 min; in series [2] it was 4.59 min.
Regarding `Nc1cc(C(=O)O)ccc1O`, the figures for the LC retention time in series [1] and in series [2] were 1.25 min and 0.796 min, respectively.
Regarding `c1ccc2[nH]ccc2c1`, the LC retention time in series [1] was 4.7 min; in series [2] it was 4.85 min.
`[2H]c1c([2H])c([2H])c(C(=O)NCC(=O)O)c([2H])c1[2H]`: the LC retention time is 3.22 min in series [1] and 2.42 min in series [2].
For `OCC1OC(OCC2OC(OC3(CO)OC(CO)C(O)C3O)C(O)C(O)C2O)C(O)C(O)C1O` (configuration not stated), the LC retention time in series [1] was 0.835 min; in series [2], 1.05 min.
On to `CNCC(O)c1ccc(O)cc1` (configuration not stated), for which the LC retention time was 0.855 min in series [1] and 1.96 min in series [2].
On to `CC(C)(C)NCC(O)c1ccc(O)c(CO)c1` (configuration not stated), for which the values for the LC retention time in series [1] and in series [2] were 2.34 min and 3.38 min, respectively.
The like results for `O=Cc1ccc(O)cc1` were, in that order, 3.39 min and 2.36 min.
The like results for `O=c1[nH]c(=O)c2ncn(C3OC(CO)C(O)C3O)c2[nH]1` (configuration not stated) were, in that order, 2.09 min and 1.11 min.
In the case of `O=C(O)c1cc(=O)[nH]c(=O)[nH]1`, the values for the LC retention time in series [1] and in series [2] were 1.01 min and 0.811 min, respectively.
For `O=C(O)c1ccc(O)c(O)c1O` the same measures were 2.59 min and 0.832 min.
As for `NC(=O)C(N)Cc1c[nH]c2ccccc12` (configuration not stated), the LC retention time in series [1] is 2.44 min; in series [2], 3.46 min.
For the molecule `Cc1cc2nc3c(=O)[nH]c(=O)nc-3n(CC(O)C(O)C(O)CO)c2cc1C` (configuration not stated), the figures for the LC retention time in series [1] and in series [2] were 3.5 min and 3.61 min, respectively.
As for `O=c1ccc2cc(OC3OC(CO)C(O)C(O)C3O)c(O)cc2o1` (configuration not stated), the figures for the LC retention time in series [1] and in series [2] were 2.78 min and 2.17 min, respectively.
As for `O=C(O)CNC(=O)CCc1ccccc1`, the LC retention time in series [1] was 2.34 min; in series [2] it was 3.32 min.
Take `NCCc1ccc(O)cc1`: the LC retention time is 1.7 min in series [1] and 2.22 min in series [2].
Turning to `CC1NC(=O)NC1CCCCCC(=O)O` (configuration not stated), the LC retention time in series [1] is 3.88 min; in series [2] it was 2.67 min.
For `CCCCCCCC(=O)OC(CC(=O)[O-])C[N+](C)(C)C` (configuration not stated) the same measures were 4.65 min and 5.1 min.
As to `CCCCCCCC(=O)NCC(=O)O`, the values for the LC retention time in series [1] and in series [2] were 5.22 min and 4.67 min, respectively.
Consider `COC(=O)c1ccc(O)c(OC)c1`, for which the LC retention time in series [1] is 4.36 min; in series [2] it was 4.18 min.
The like results for `CC(O)CC(=O)O` (configuration not stated) were, in that order, 0.799 min and 0.804 min.
The like results for `CNCCc1c[nH]c2ccccc12` were, in that order, 2.87 min and 3.84 min.
Turning to `CC12CCC(=O)C=C1CCC1C2C(O)CC2(C)C1CCC2(O)C(=O)CO` (configuration not stated), the LC retention time is 5.02 min in series [1] and 5.22 min in series [2].
On to `CNC(=C[N+](=O)[O-])NCCSCc1ccc(CN(C)C)o1`, for which the LC retention time in series [1] was 2.32 min; in series [2], 4.28 min.
On to `Nc1ncnc2c1ncn2C1OC(CO)C2OP(=O)(O)OC21` (configuration not stated), for which the values for the LC retention time in series [1] and in series [2] were 1.68 min and 2.11 min, respectively.
`NCCc1c[nH]c2ccc(O)cc12`: the figures for the LC retention time in series [1] and in series [2] were 1.9 min and 2.35 min, respectively.
As to `OCC1OC(OC2C(CO)OC(O)(CO)C2O)C(O)C(O)C1O` (configuration not stated), the LC retention time in series [1] was 0.799 min; in series [2], 0.859 min.
As for `Oc1ccc(C=Cc2cc(O)cc(O)c2)cc1`, the figures for the LC retention time in series [1] and in series [2] were 4.15 min and 4.23 min, respectively.
For the molecule `CC(=O)NCCCCN`, the figures for the LC retention time in series [1] and in series [2] were 0.91 min and 1.29 min, respectively.
Turning to `Cn1cnc2c(ncn2C2OC(CO)C(O)C2O)c1=N` (configuration not stated), the LC retention time was 2.33 min in series [1] and 3.02 min in series [2].
`CCCCCCSCC(NC(=O)CCC(N)C(=O)O)C(=O)NCC(=O)O` (configuration not stated): the LC retention time in series [1] is 4.88 min; in series [2] it was 4.57 min.
Regarding `O=C1OC(CO)C(O)C(O)C1O` (configuration not stated), the LC retention time in series [1] was 0.795 min; in series [2], 0.906 min.
With `COc1ccc2[nH]cc(CC(=O)O)c2c1`, the values for the LC retention time in series [1] and in series [2] were 4.09 min and 2.72 min, respectively.
`Cc1cc2nc[nH]c2cc1C`: the LC retention time was 3.34 min in series [1] and 4.93 min in series [2].
The like results for `NC(=O)CCCCC1CCSS1` (configuration not stated) were, in that order, 4.6 min and 4.75 min.
For the molecule `COc1cc(CC(=O)O)ccc1O`, the figures for the LC retention time in series [1] and in series [2] were 3.42 min and 1.89 min, respectively.
For `O=C(O)c1ccnc2ccccc12`, the LC retention time in series [1] was 1.91 min; in series [2] it was 2.09 min.
For the molecule `COc1ccc(O)c(C(=O)O)c1`, the LC retention time in series [1] was 4.48 min; in series [2], 2.84 min.
Take `Oc1ccc(O)cc1`: the LC retention time in series [1] was 2.83 min; in series [2] it was 1.95 min.
On to `CC1CNC(=O)NC1=O` (configuration not stated), for which the LC retention time in series [1] is 1.87 min; in series [2] it was 1.94 min.
As to `O=C1NS(=O)(=O)c2ccccc21`, the values for the LC retention time in series [1] and in series [2] were 2.66 min and 2.3 min, respectively.
For the molecule `O=C(O)C1CCCCN1` (configuration not stated), the LC retention time in series [1] is 1.15 min; in series [2] it was 1.14 min.
On to `CC(=O)c1ccc(O)cc1O`, for which the LC retention time in series [1] was 4.09 min; in series [2], 3.05 min.
In the case of `NCCCCCCCC(=O)O`, the figures for the LC retention time in series [1] and in series [2] were 2.59 min and 1.95 min, respectively.
Take `NCC(O)c1ccccc1` (configuration not stated): the LC retention time in series [1] is 2.04 min; in series [2], 3.07 min.
`NC(=O)C1CCCN1C(=O)C(Cc1cnc[nH]1)NC(=O)C1CCC(=O)N1` (configuration not stated): the LC retention time was 1.76 min in series [1] and 2.36 min in series [2].
For `O=c1[nH]cnc2c1ncn2C1OC(CO)C(O)C1O` (configuration not stated) the same measures were 1.92 min and 1.9 min.
In the case of `COc1cccc(OC)c1C(=O)O`, the figures for the LC retention time in series [1] and in series [2] were 3.65 min and 2.18 min, respectively.
In the case of `CCC(NC(=O)CCC(N)C(=O)O)C(=O)NCC(=O)O` (configuration not stated), the LC retention time in series [1] was 1.58 min; in series [2], 0.928 min.
Take `CC(=O)NC(Cc1ccccc1)C(=O)O` (configuration not stated): the LC retention time in series [1] was 3.99 min; in series [2], 2.99 min.
Regarding `COc1cc(C(=O)O)cc(OC)c1O`, the LC retention time in series [1] was 3.43 min; in series [2], 1.59 min.
As for `COc1cc(O)cc(OC)c1`, the LC retention time in series [1] is 4.13 min; in series [2], 4.22 min.
As to `Oc1ccc2[nH]ccc2c1`, the LC retention time in series [1] is 2.9 min; in series [2] it was 2.98 min.
As for `CC(=O)NC(CCCCN)C(=O)O` (configuration not stated), the LC retention time was 0.903 min in series [1] and 0.916 min in series [2].
Turning to `NCCCC(=O)O`, the LC retention time was 0.761 min in series [1] and 0.769 min in series [2].
For `O=C1CCCc2[nH]ccc21` the same measures were 2.95 min and 3.04 min.
In the case of `O=C1OC(C(O)CO)C(O)C1O` (configuration not stated), the values for the LC retention time in series [1] and in series [2] were 0.804 min and 0.822 min, respectively.
Take `[2H]c1[nH]c2c([2H])c([2H])c([2H])c([2H])c2c1CC(=O)O`: the results for the LC retention time in series [1] and in series [2] were 4.22 min and 2.49 min, respectively.
Take `O=C(O)c1cccnc1`: the LC retention time is 1.27 min in series [1] and 1.25 min in series [2].
As to `O=c1ccn(C2CC(O)C(CO)O2)c(=O)[nH]1` (configuration not stated), the LC retention time was 1.85 min in series [1] and 1.87 min in series [2].
In the case of `O=C(O)c1ccc(O)cc1`, the LC retention time in series [1] is 3.1 min; in series [2], 0.892 min.
`NC(Cc1ccc([N+](=O)[O-])cc1)C(=O)O` (configuration not stated): the LC retention time is 2.5 min in series [1] and 2.58 min in series [2].
As for `Nc1ccccc1S(=O)(=O)O`, the LC retention time in series [1] is 1.79 min; in series [2], 1.68 min.
With `Nc1ncnc2c1ncn2C1OC(CO)C(O)C1O` (configuration not stated), the results for the LC retention time in series [1] and in series [2] were 1.86 min and 2.48 min, respectively.
On to `C[n+]1cccc(C(=O)[O-])c1`, for which the LC retention time is 0.822 min in series [1] and 0.848 min in series [2].
On to `O=C(O)C(O)Cc1ccc(O)cc1` (configuration not stated), for which the results for the LC retention time in series [1] and in series [2] were 2.87 min and 1.51 min, respectively.
Regarding `O=C(O)CN(CCO)CCO`, the LC retention time is 0.765 min in series [1] and 0.874 min in series [2].
On to `CCCCNC(=O)NS(=O)(=O)c1ccc(C)cc1`, for which the values for the LC retention time in series [1] and in series [2] were 5.11 min and 4.37 min, respectively.
With `COC(=O)C(Cc1ccccc1)NC(=O)C(N)CC(=O)O` (configuration not stated), the LC retention time in series [1] was 3.56 min; in series [2], 3.67 min.
As to `CSCCC(NC=O)C(=O)O` (configuration not stated), the LC retention time in series [1] is 2.78 min; in series [2], 1.75 min.
For `CSCC1OC(n2cnc3c(N)ncnc32)C(O)C1O` (configuration not stated) the same measures were 2.85 min and 3.51 min.
Consider `Nc1ccccc1C(=O)O`, for which the LC retention time is 3.65 min in series [1] and 1.76 min in series [2].
For the molecule `CC(=O)NCCCC(=O)O`, the LC retention time in series [1] is 1.95 min; in series [2], 0.923 min.
